For data set [1] the following is noted: Crystal.
Data set [2] is described as follows: Molar enthalpy of transition or fusion. Particulars: Crystal.

The structures appear in SMILES notation. “And” between values parts separate entries of the source, which are not always exact repeats. Equal entries are not always repeated. Numbers after ± are expanded uncertainties.

For `CCCCCCCCCC[n+]1cccc(C)c1.[Cl-]` [1-decyl-3-methylpyridinium chloride], the Normal melting temperature in data set [1] was 79.4 ± 0.8 °C and 75.6 ± 2.5 °C. The “Molar enthalpy of transition or fusion” value in data set [2] was 3.44 ± 0.741 kcal/mol.
As for `CCCCCC[n+]1cccc(C)c1.[Cl-]` [1-hexyl-3-methylpyridinium chloride], the Normal melting temperature in data set [1] is 82.0 ± 0.8 °C and 80 ± 2.5 °C. Further, the “Molar enthalpy of transition or fusion” value in data set [2] is 4.71 ± 0.741 kcal/mol.
For `CCCCCCCCCCCCCCCCCC[n+]1cccc(C)c1.[Cl-]` [3-methyl-1-octadecylpyridinium chloride], the Normal melting temperature in data set [1] was 112.2 ± 0.8 °C and 113 ± 2.5 °C. In addition, the “Molar enthalpy of transition or fusion” value in data set [2] was 6.72 ± 0.765 kcal/mol.
As to `CCCCCCCC[n+]1cccc(C)c1.[Cl-]` [1-octyl-3-methylpyridinium chloride], in data set [1], the Normal melting temperature was 80.1 ± 0.8 °C and 79.2 ± 2.5 °C. Also, the “Molar enthalpy of transition or fusion” value in data set [2] turned out to be 3.56 ± 0.741 kcal/mol.
On to `CCCC[n+]1cccc(C)c1.[Cl-]` [1-butyl-3-methylpyridinium chloride], for which the Normal melting temperature in data set [1] was 111.4 ± 0.8 °C and 109.8 ± 2.5 °C. The “Molar enthalpy of transition or fusion” value in data set [2] was 6.57 ± 0.765 kcal/mol.
Consider `CCCCCCCCCCCC[n+]1cccc(C)c1.[Cl-]` [1-dodecyl-3-methylpyridinium chloride], for which the Normal melting temperature in data set [1] is 87.7 ± 0.8 °C and 86.8 ± 2.5 °C. For the same compound, in data set [2], the “Molar enthalpy of transition or fusion” value is 8.87 ± 0.789 kcal/mol.
Regarding `CCCCCCCCCCCCCCCC[n+]1cccc(C)c1.[Cl-]` [1-hexadecyl-3-methylpyridinium chloride], the Normal melting temperature in data set [1] was 110 ± 0.8 °C and 110.0 ± 2.5 °C. In addition, in data set [2], the “Molar enthalpy of transition or fusion” value came out at 9.63 ± 0.813 kcal/mol.
For the compound `CCCCCCCCCCCCCC[n+]1cccc(C)c1.[Cl-]` [1-tetradecyl-3-methylpyridinium chloride], the Normal melting temperature in data set [1] is 93.7 ± 0.8 °C and 94.6 ± 2.5 °C. The “Molar enthalpy of transition or fusion” value in data set [2] came to 10.2 ± 0.813 kcal/mol.

For the origin of these results see the NIST ThermoML archive (doi:10.1021/je2001446).
